Measurements from the NIST ThermoML archive (doi:10.1021/acs.jced.9b00752).
± gives the expanded uncertainty stated by the source.

Experiment: mn = molality of the nth substance listed, in mol/kg
Conditions: 100 kPa, Liquid, Vibrating tube method

N[C@@H](Cc1c[nH]c2ccccc12)C(=O)O [L-tryptophan] + O
mass density [kg/m3]
Conditions | 273.65 K | 274.15 K | 274.65 K | 275.15 K | 275.65 K | 276.15 K | 276.65 K | 277.15 K | 277.65 K | 278.15 K
m1 = 0.0035 | 1000.09 ± 0.12 | 1000.12 ± 0.12 | 1000.14 ± 0.12 | 1000.15 ± 0.12 | 1000.17 ± 0.12 | 1000.18 ± 0.12 | 1000.18 ± 0.12 | 1000.18 ± 0.12 | 1000.18 ± 0.12 | 1000.17 ± 0.12
m1 = 0.009 | 1000.46 ± 0.12 | 1000.48 ± 0.12 | 1000.5 ± 0.12 | 1000.52 ± 0.12 | 1000.53 ± 0.12 | 1000.54 ± 0.12 | 1000.54 ± 0.12 | 1000.55 ± 0.12 | 1000.54 ± 0.12 | 1000.53 ± 0.12
m1 = 0.0179 | 1001.04 ± 0.12 | 1001.06 ± 0.12 | 1001.08 ± 0.12 | 1001.09 ± 0.12 | 1001.11 ± 0.12 | 1001.11 ± 0.12 | 1001.12 ± 0.12 | 1001.12 ± 0.12 | 1001.11 ± 0.12 | 1001.1 ± 0.12
m1 = 0.0306 | 1001.86 ± 0.12 | 1001.88 ± 0.12 | 1001.9 ± 0.12 | 1001.91 ± 0.12 | 1001.92 ± 0.12 | 1001.93 ± 0.12 | 1001.93 ± 0.12 | 1001.93 ± 0.12 | 1001.92 ± 0.12 | 1001.91 ± 0.12
m1 = 0.0352 | 1002.16 ± 0.12 | 1002.18 ± 0.12 | 1002.2 ± 0.12 | 1002.22 ± 0.12 | 1002.23 ± 0.12 | 1002.23 ± 0.12 | 1002.23 ± 0.12 | 1002.23 ± 0.12 | 1002.22 ± 0.12 | 1002.21 ± 0.12
m1 = 0.0429 | 1002.66 ± 0.12 | 1002.68 ± 0.12 | 1002.7 ± 0.12 | 1002.71 ± 0.12 | 1002.72 ± 0.12 | 1002.73 ± 0.12 | 1002.72 ± 0.12 | 1002.72 ± 0.12 | 1002.72 ± 0.12 | 1002.7 ± 0.12
m1 = 0.0536 | 1003.36 ± 0.12 | 1003.38 ± 0.12 | 1003.39 ± 0.12 | 1003.4 ± 0.12 | 1003.41 ± 0.12 | 1003.41 ± 0.12 | 1003.41 ± 0.12 | 1003.41 ± 0.12 | 1003.4 ± 0.12 | 1003.39 ± 0.12
m1 = 0.0595 | 1003.74 ± 0.12 | 1003.75 ± 0.12 | 1003.77 ± 0.12 | 1003.78 ± 0.12 | 1003.79 ± 0.12 | 1003.79 ± 0.12 | 1003.78 ± 0.12 | 1003.78 ± 0.12 | 1003.77 ± 0.12 | 1003.76 ± 0.12
m1 = 0.0659 | 1004.14 ± 0.12 | 1004.16 ± 0.12 | 1004.17 ± 0.12 | 1004.18 ± 0.12 | 1004.19 ± 0.12 | 1004.19 ± 0.12 | 1004.19 ± 0.12 | 1004.18 ± 0.12 | 1004.17 ± 0.12 | 1004.16 ± 0.12
m1 = 0.0769 | 1004.85 ± 0.12 | 1004.87 ± 0.12 | 1004.88 ± 0.12 | 1004.88 ± 0.12 | 1004.89 ± 0.12 | 1004.89 ± 0.12 | 1004.88 ± 0.12 | 1004.88 ± 0.12 | 1004.87 ± 0.12 | 1004.85 ± 0.12
